Reference: PubChem BioAssay AID1963979 (Molecular Pharmacology Branch, DTP, NCI, 2024)

Test system: 361931-004-R-J1-PDC multicell spheroid viability
Test: Anticancer human tumor 361931-004-R-J1-PDC patient-derived colon adenocarcinoma cell line growth inhibition [PI3K]
Conditions: for IC50: curve of first compound; for viability, T/C: stronger effect = lower value
Source text: Combinatorial screen of targeted agents with the PI3K inhibitors inavolisib, alpelisib, duvelisib, and copanlisib in multi-cell type tumor spheroids
A high-throughput screen of multi-cell type tumor spheroids was designed to identify active combinations of targeted small molecules and PI3K pathway inhibitors. Complex spheroids include a stromal component modeled by human endothelial cells (HUVEC) and fibroblasts modeled by human mesenchymal stem cells (MSCs). The concentration ranges selected for each drug and investigational agent were based upon clinically achievable concentrations if the clinical Cmax of the agent was known.
Compounds. The drugs and investigational agents: inavolisib (NSC800729), alpelisib (NSC765974), duvelisib (NSC772469), copanlisib (NSC816437), ipatasertib (NSC767898), afuresertib (NSC778305), talazoparib (NSC767125), sapanisertib (NSC764658), selumetinib (NSC741078), tovorafenib (DAY101, NSC766906), vemurafenib (NSC761431), ravoxertinib (NSC781343), sotorasib (NSC818433), MRTX1133 (NSC 836407), abemaciclib (NSC 768073), palbociclib (NSC758247), venetoclax (NSC 766270), SY5609 (NSC837396), enzalutamide (NSC755605), and darolutamide (NSC825331), were obtained from the National Cancer Institute (NCI) Developmental Therapeutics Program Chemical Repository. The FDA-approved anticancer drug set is available from the NCI Developmental Therapeutics Program. […] The stock solutions were prepared in dimethyl sulfoxide (DMSO, Sigma-Aldrich, St. Louis, MO, cat. D2650) at 800-fold the tested concentration and stored at -70 degrees C prior to their use. All drugs and investigational agents were tested over a range starting from a high concentration at or near the clinical Cmax and decreasing in half-log increments. If the clinical Cmax for an agent had not been determined, the highest concentration tested was 10 microM.
Cell Culture. All cells were maintained in an incubator at 37 degrees C and 5% CO2 with 95% humidity. The PDC lines were cultured according to standard operating procedures established by the NCI PDMR (https://pdmr.cancer.gov/sops/default.htm). All PDCs were thawed and cultured in Matrigel-coated flasks prepared with a working solution of 1X Ham's F-12 nutrient mix, without supplementation (Invitrogen, Waltham, MA, cat. 11765054), 100 U/mL penicillin-streptomycin (Invitrogen, cat. 15140122), and 2.5% Matrigel (Corning Inc., Corning, NY, cat. 354248) for the first three passages. The 354836-022-R-J1-PDC, 475296-252-R-J1-PDC, and 997726-040-R-J2-PDC lines were cultured in 6A media, which includes advanced DMEM/F-12 (Thermo Fisher Scientific, cat. 12634028), 10 mM HEPES (Thermo Fisher Scientific, cat. 15630080), 1X GlutaMAX supplement (Thermo Fisher Scientific, cat. 35050061), 0.1 mg/mL primocin (InvivoGen, San Diego, CA, cat. ant-pm-2), 10% defined fetal bovine serum, heat inactivated (HyClone Laboratories Inc., Logan, UT, cat. SH30070.03HI), 50% L-WRN conditioned media (ATCC, cat. CRL-3276), 1.25 mM N-Acetyl-L-cysteine (Sigma-Aldrich, cat. A9165), 10 mM nicotinamide (Sigma-Aldrich, cat. N0636), 1X B-27 supplement (Thermo Fisher Scientific, cat. 17504044), 1X N-2 supplement (Thermo Fisher Scientific, cat. 17502048), and 10 microM Y-27632 dihydrochloride (Tocris Bioscience, Bristol, United Kingdom, cat. 1254). The 624824-186-R-J2-PDC line was cultured in 6C/Colon 1B media, which includes all 6A media components plus 50 ng/mL human EGF recombinant protein (Thermo Fisher Scientific, cat. PHG0311). […]

[1] = second compound 0.00316 µM, first compound 0.0316 µM
[2] = second compound 0.00316 µM, first compound 0.1 µM
[3] = second compound 0.01 µM, first compound 0.0316 µM
[4] = second compound 0.01 µM, first compound 0.1 µM
[5] = second compound 0.0316 µM, first compound 0.0316 µM
[6] = second compound 0.0316 µM, first compound 0.1 µM
[7] = second compound 0.1 µM, first compound 0.0316 µM
[8] = second compound 0.1 µM, first compound 0.1 µM
[9] = second compound 0.316 µM, first compound 0.0316 µM
[10] = second compound 0.316 µM, first compound 0.1 µM
[11] = second compound 1 µM, first compound 0.0316 µM
[12] = second compound 1 µM, first compound 0.1 µM
[13] = second compound 0.00316 µM, first compound 0.316 µM
[14] = second compound 0.00316 µM, first compound 1 µM
[15] = second compound 0.00316 µM, first compound 3.16 µM
[16] = second compound 0.00316 µM, first compound 10 µM
[17] = second compound 0.01 µM, first compound 0.316 µM
[18] = second compound 0.01 µM, first compound 1 µM
[19] = second compound 0.01 µM, first compound 3.16 µM
[20] = second compound 0.01 µM, first compound 10 µM
[21] = second compound 0.0316 µM, first compound 0.316 µM
[22] = second compound 0.0316 µM, first compound 1 µM
[23] = second compound 0.0316 µM, first compound 3.16 µM
[24] = second compound 0.0316 µM, first compound 10 µM
[25] = second compound 0.1 µM, first compound 0.316 µM
[26] = second compound 0.1 µM, first compound 1 µM
[27] = second compound 0.1 µM, first compound 3.16 µM
[28] = second compound 0.1 µM, first compound 10 µM
[29] = second compound 0.316 µM, first compound 0.316 µM
[30] = second compound 0.316 µM, first compound 1 µM
[31] = second compound 0.316 µM, first compound 3.16 µM
[32] = second compound 0.316 µM, first compound 10 µM
[33] = second compound 1 µM, first compound 0.316 µM
[34] = second compound 1 µM, first compound 1 µM
[35] = second compound 1 µM, first compound 3.16 µM
[36] = second compound 1 µM, first compound 10 µM
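Further: spheroids exposed to agents for seven days before readout.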

CC(=O)c1c(C)c2cnc(Nc3ccc(N4CCNCC4)cn3)nc2n(C2CCCC2)c1=O + CC(Nc1ccc2c(c1)OCCn1cc(N3C(=O)OCC3C(F)F)nc1-2)C(N)=O
IC50 (second compound 0.00316 µM): > 0.1 µM
IC50 (second compound 0.01 µM): > 0.1 µM
IC50 (second compound 0.0316 µM): > 0.1 µM
IC50 (second compound 0.1 µM): > 0.1 µM
IC50 (second compound 0.316 µM): > 0.1 µM
IC50 (second compound 1 µM): 0.0916 µM
viability, T/C (second compound 0.00316 µM, first compound 0.000316 µM): 97.9%
viability, T/C (second compound 0.00316 µM, first compound 0.001 µM): 106%
viability, T/C (second compound 0.00316 µM, first compound 0.00316 µM): 105%
viability, T/C (second compound 0.00316 µM, first compound 0.01 µM): 107%
viability, T/C [1]: 99.4%
viability, T/C [2]: 73.7%
viability, T/C (second compound 0.01 µM, first compound 0.000316 µM): 111%
viability, T/C (second compound 0.01 µM, first compound 0.001 µM): 104%
viability, T/C (second compound 0.01 µM, first compound 0.00316 µM): 104%
viability, T/C (second compound 0.01 µM, first compound 0.01 µM): 99.8%
viability, T/C [3]: 99.1%
viability, T/C [4]: 76.8%
viability, T/C (second compound 0.0316 µM, first compound 0.000316 µM): 102%
viability, T/C (second compound 0.0316 µM, first compound 0.001 µM): 102%
viability, T/C (second compound 0.0316 µM, first compound 0.00316 µM): 93.8%
viability, T/C (second compound 0.0316 µM, first compound 0.01 µM): 86.8%
viability, T/C [5]: 91%
viability, T/C [6]: 82.6%
viability, T/C (second compound 0.1 µM, first compound 0.000316 µM): 98.8%
viability, T/C (second compound 0.1 µM, first compound 0.001 µM): 87.2%
viability, T/C (second compound 0.1 µM, first compound 0.00316 µM): 86.1%
viability, T/C (second compound 0.1 µM, first compound 0.01 µM): 89%
viability, T/C [7]: 90.4%
viability, T/C [8]: 63.8%
viability, T/C (second compound 0.316 µM, first compound 0.000316 µM): 96.5%
viability, T/C (second compound 0.316 µM, first compound 0.001 µM): 87.1%
viability, T/C (second compound 0.316 µM, first compound 0.00316 µM): 90.8%
viability, T/C (second compound 0.316 µM, first compound 0.01 µM): 77.6%
viability, T/C [9]: 81.4%
viability, T/C [10]: 61.9%
viability, T/C (second compound 1 µM, first compound 0.000316 µM): 86.6%
viability, T/C (second compound 1 µM, first compound 0.001 µM): 78.5%
viability, T/C (second compound 1 µM, first compound 0.00316 µM): 75%
viability, T/C (second compound 1 µM, first compound 0.01 µM): 85.1%
viability, T/C [11]: 64.3%
viability, T/C [12]: 48.9%

CCCS(=O)(=O)Nc1ccc(F)c(C(=O)c2c[nH]c3ncc(-c4ccc(Cl)cc4)cc23)c1F + CC(Nc1ccc2c(c1)OCCn1cc(N3C(=O)OCC3C(F)F)nc1-2)C(N)=O
IC50 (second compound 0.00316 µM): 5.17 µM
IC50 (second compound 0.01 µM): 5.13 µM
IC50 (second compound 0.0316 µM): 5.27 µM
IC50 (second compound 0.1 µM): 4.34 µM
IC50 (second compound 0.316 µM): 4.03 µM
IC50 (second compound 1 µM): 1.74 µM
viability, T/C [1]: 102%
viability, T/C [2]: 100%
viability, T/C [13]: 84.9%
viability, T/C [14]: 82.8%
viability, T/C [15]: 83.8%
viability, T/C [16]: 4.25%
viability, T/C [3]: 101%
viability, T/C [4]: 94.7%
viability, T/C [17]: 81.8%
viability, T/C [18]: 83.6%
viability, T/C [19]: 83.4%
viability, T/C [20]: 4.05%
viability, T/C [5]: 92.3%
viability, T/C [6]: 86%
viability, T/C [21]: 85.5%
viability, T/C [22]: 83%
viability, T/C [23]: 87.2%
viability, T/C [24]: 3.87%
viability, T/C [7]: 88.5%
viability, T/C [8]: 81.5%
viability, T/C [25]: 89.1%
viability, T/C [26]: 73%
viability, T/C [27]: 70.2%
viability, T/C [28]: 4.14%
viability, T/C [9]: 86.7%
viability, T/C [10]: 72.6%
viability, T/C [29]: 63%
viability, T/C [30]: 73.5%
viability, T/C [31]: 62.5%
viability, T/C [32]: 3.6%
viability, T/C [11]: 74.4%
viability, T/C [12]: 65.7%
viability, T/C [33]: 70%
viability, T/C [34]: 50.3%
viability, T/C [35]: 46.6%
viability, T/C [36]: 2.59%

CNC(=O)c1ccc(N2C(=S)N(c3ccc(C#N)c(C(F)(F)F)c3)C(=O)C2(C)C)cc1F + CC(Nc1ccc2c(c1)OCCn1cc(N3C(=O)OCC3C(F)F)nc1-2)C(N)=O
IC50 (second compound 0.00316 µM): > 10 µM
IC50 (second compound 0.01 µM): > 10 µM
IC50 (second compound 0.0316 µM): > 10 µM
IC50 (second compound 0.1 µM): > 10 µM
IC50 (second compound 0.316 µM): > 10 µM
IC50 (second compound 1 µM): > 10 µM
viability, T/C [1]: 110%
viability, T/C [2]: 101%
viability, T/C [13]: 101%
viability, T/C [14]: 92.8%
viability, T/C [15]: 110%
viability, T/C [16]: 93.7%
viability, T/C [3]: 109%
viability, T/C [4]: 102%
viability, T/C [17]: 85.2%
viability, T/C [18]: 104%
viability, T/C [19]: 103%
viability, T/C [20]: 90.4%
viability, T/C [5]: 107%
viability, T/C [6]: 103%
viability, T/C [21]: 105%
viability, T/C [22]: 102%
viability, T/C [23]: 105%
viability, T/C [24]: 82.4%
viability, T/C [7]: 94.6%
viability, T/C [8]: 99.1%
viability, T/C [25]: 93.1%
viability, T/C [26]: 100%
viability, T/C [27]: 97.4%
viability, T/C [28]: 86.4%
viability, T/C [9]: 88.1%
viability, T/C [10]: 94%
viability, T/C [29]: 88.6%
viability, T/C [30]: 87.9%
viability, T/C [31]: 87.5%
viability, T/C [32]: 76%
viability, T/C [11]: 75.9%
viability, T/C [12]: 82.1%
viability, T/C [33]: 79.3%
viability, T/C [34]: 78%
viability, T/C [35]: 76.1%
viability, T/C [36]: 79.6%
